Question: With `CC(C)C[O-].CC(C)C[O-].CC(C)C[O-].CC(C)C[O-].[Ti+4]` [TITANIUM ISOBUTOXIDE] as the compound, how does the flash point read?
Answer: 77.00 °C

Question: With `CCCCCCCCP(CCCCCCCC)CCCCCCCC` [TRIOCTYLPHOSPHINE] as the compound, how does the flash point read?
Answer: 147.00 °C

Question: Which flash point does the source give for `C[Si](C)(C)OB(O[Si](C)(C)C)O[Si](C)(C)C` [TRIS(TRIMETHYLSILOXY)BORON] here?
Answer: 42.00 °C

Question: For `C[O-].C[O-].C[O-].[B+3]` [BORON METHOXIDE], which flash point is on record?
Answer: -1.00 °C

Question: With `CCOP(OCC)OCC` [TRIETHYLPHOSPHITE] as the compound, how does the flash point read?
Answer: 54.00 °C

Question: For `CC(C)(C)[O-].CC(C)(C)[O-].CC(C)(C)[O-].CC(C)(C)[O-].[Zr+4]` [ZIRCONIUM t-BUTOXIDE], which flash point is on record?
Answer: 85.00 °C

Question: For `CCCC[O-].CCCC[O-].CCCC[O-].CCCC[O-].[Ti+4]` [TITANIUM n-BUTOXIDE], which flash point is on record?
Answer: 76.00 °C

Question: Which flash point does the source give for `CC[N](CC)[Ta](=[N]C(C)(C)C)([N](CC)CC)[N](CC)CC` [TRIS(DIETHYLAMINO)(t-BUTYLIMINO) TANTALUM] here?
Answer: 46.00 °C

Question: With `C[N-]C.C[N-]C.C[N-]C.C[N-]C.[Ti+4]` [TITANIUM TETRAKIS(DIMETHYLAMIDE)] as the compound, how does the flash point read?
Answer: 8.00 °C

Question: Which flash point does the source give for `CC(C)(C)CCCCCC(=O)[O-].CC(C)(C)CCCCCC(=O)[O-].[Zn+2]` [ZINC NEODECANOATE] here?
Answer: 102.00 °C

Remark: another data set of the same source

Question: With `CCCC[O][Sn]([CH2]CCC)([CH2]CCC)[O]CCCC` [DI-n-BUTYLDI-n-BUTOXYTIN] as the compound, how does the flash point read?
Answer: 116.00 °C

Question: Which flash point does the source give for `CCC[CH2][Sn]([CH2]CCC)([O]C(C)=O)[O]C(C)=O` [DI-n-BUTYLDIACETOXYTIN] here?
Answer: 143.00 °C

Question: Which flash point does the source give for `C[N](C)[Sn]([CH3])([CH3])[CH3]` [DIMETHYLAMINOTRIMETHYLTIN] here?
Answer: 1.00 °C

Question: Which flash point does the source give for `CCCCCCC[CH2][Sn]([CH2]CCCCCCC)([CH2]CCCCCCC)[CH2]CCCCCCC` [TETRA-n-OCTYLTIN] here?
Answer: 94.00 °C

Question: With `CCC[CH2][Sn]([CH2]CCC)([CH2]CCC)[c]1ccccc1` [PHENYLTRI-n-BUTYLTIN] as the compound, how does the flash point read?
Answer: 107.00 °C

Question: For `[CH3][Sn]([CH3])([CH3])[CH3]` [TETRAMETHYLTIN], which flash point is on record?
Answer: -12.00 °C

Question: With `CCC[CH2][Sn]([CH2]CCC)([CH2]CCC)[C](C)(C)C` [t-BUTYLTRI n-BUTYLTIN] as the compound, how does the flash point read?
Answer: 102.00 °C

Question: Which flash point does the source give for `CCCCCCCCCCC[CH2][Sn]([CH2]CCCCCCC)([CH2]CCCCCCC)[CH2]CCCCCCCCCCC` [DIOCTYLDILAURYLTIN] here?
Answer: 198.00 °C

Question: With `CCC[CH2][Sn]([Cl])([CH2]CCC)[CH2]CCC` [TRI-n-BUTYLCHLOROTIN] as the compound, how does the flash point read?
Answer: 120.00 °C

Question: With `CCC[CH2][SnH]([CH2]CCC)[CH2]CCC` [TRI-n-BUTYLTIN HYDRIDE] as the compound, how does the flash point read?
Answer: 40.00 °C

Question: For `C#[C][Sn]([CH2]CCC)([CH2]CCC)[CH2]CCC` [ETHYNYLTRI-n-BUTYLTIN], which flash point is on record?
Answer: 73.00 °C

Question: With `CCC[CH2][Sn]([CH2]CCC)([CH2]CCC)[O]CC` [TRI-n-BUTYLETHOXYTIN] as the compound, how does the flash point read?
Answer: 104.00 °C

Question: Which flash point does the source give for `CCC[CH2][Sn]([I])([CH2]CCC)[CH2]CCC` [TRI-n-BUTYLIODOTIN] here?
Answer: 113.00 °C

Question: With `C=C[CH2][Sn]([CH2]C=C)([CH2]CCC)[CH2]CCC` [DIALLYLDI-n-BUTYLTIN] as the compound, how does the flash point read?
Answer: 101.00 °C

Question: For `c1cc[c]([Sn]([c]2ccccc2)([c]2ccccc2)[c]2ccccc2)cc1` [TETRAPHENYLTIN], which flash point is on record?
Answer: 231.00 °C

Question: For `CCC[CH2][Sn]([CH2]CCC)([CH2]CCC)[CH2]CCC` [TETRA-n-BUTYLTIN], which flash point is on record?
Answer: 107.00 °C

Question: For `C1CC[CH]([SnH]([CH]2CCCCC2)[CH]2CCCCC2)CC1` [TRICYCLOHEXYLTIN HYDRIDE], which flash point is on record?
Answer: 105.00 °C

Question: For `C[C](C)(C)[Sn]([Cl])([Cl])[C](C)(C)C` [DI-t-BUTYLDICHLOROTIN], which flash point is on record?
Answer: 113.00 °C

Question: Which flash point does the source give for `[CH3][Sn]([CH3])([CH3])[Cl]` [TRIMETHYLCHLOROTIN] here?
Answer: 97.00 °C

Question: For `CCC[CH2][Sn]([CH2]CCC)([O]C)[O]C` [DI-n-BUTYLDIMETHOXYTIN], which flash point is on record?
Answer: 110.00 °C

Remark: another data set of the same source

Question: For `CC[O][Ge]([O]CC)([O]CC)[O]CC` [TETRAETHOXYGERMANE], which flash point is on record?
Answer: 62.00 °C

Question: For `[Cl][GeH]([Cl])[Cl]` [TRICHLOROGERMANE], which flash point is on record?
Answer: 12.00 °C

Question: Which flash point does the source give for `CCC[CH2][Ge]([Cl])([Cl])[Cl]` [n-BUTYLTRICHLOROGERMANE] here?
Answer: 82.00 °C

Question: Which flash point does the source give for `C[CH2][Ge]([Cl])([CH2]C)[CH2]C` [TRIETHYLCHLOROGERMANE] here?
Answer: 38.00 °C

Question: Which flash point does the source give for `C[N](C)[Ge]([CH3])([CH3])[CH3]` [DIMETHYLAMINOTRIMETHYLGERMANE] here?
Answer: -10.00 °C

Question: For `C=C[CH2][Ge]([Cl])([Cl])[Cl]` [ALLYLTRICHLOROGERMANE], which flash point is on record?
Answer: 55.00 °C

Question: Which flash point does the source give for `C[CH2][Ge]([Cl])([Cl])[CH2]C` [DIETHYLDICHLOROGERMANE] here?
Answer: 52.00 °C

Question: Which flash point does the source give for `C[CH](C)[Ge]([Cl])([CH](C)C)[CH](C)C` [TRIISOPROPYLCHLOROGERMANE] here?
Answer: 66.00 °C

Question: With `CCC[CH2][Ge]([Cl])([CH2]CCC)[CH2]CCC` [TRI-n-BUTYLCHLOROGERMANE] as the compound, how does the flash point read?
Answer: 94.00 °C

Question: For `CC[O][Ge]([CH3])([O]CC)[O]CC` [METHYLTRIETHOXYGERMANE], which flash point is on record?
Answer: 40.00 °C

Question: For `C=C[CH2][Ge]([CH2]C)([CH2]C)[CH2]C` [ALLYLTRIETHYLGERMANE], which flash point is on record?
Answer: 48.00 °C

Question: For `CCC[CH2][Ge]([CH2]CCC)([CH2]CCC)[CH2]CCC` [TETRA-n-BUTYLGERMANE], which flash point is on record?
Answer: 90.00 °C

Question: With `CC(C)[O][Ge]([O]C(C)C)([O]C(C)C)[O]C(C)C` [TETRAISOPROPOXYGERMANE] as the compound, how does the flash point read?
Answer: 68.00 °C

Question: For `C=C[CH2][Ge]([CH2]C=C)([CH2]C=C)[CH2]C=C` [TETRAALLYLGERMANE], which flash point is on record?
Answer: 70.00 °C

Question: For `[CH3][Ge]([CH3])([CH3])[CH3]` [TETRAMETHYLGERMANE], which flash point is on record?
Answer: -19.00 °C

Question: With `CCC[CH2][GeH]([CH2]CCC)[CH2]CCC` [TRI-n-BUTYLGERMANE] as the compound, how does the flash point read?
Answer: 78.00 °C

Question: For `[CH3][Ge]([CH3])([CH3])[CH](Cl)Cl` [DICHLOROMETHYLTRIMETHYLGERMANE], which flash point is on record?
Answer: 33.00 °C

Question: Which flash point does the source give for `C[CH2][GeH]([CH2]C)[CH2]C` [TRIETHYLGERMANE] here?
Answer: 5.00 °C

Question: For `[CH3][Ge]([CH3])([CH3])[Cl]` [TRIMETHYLCHLOROGERMANE], which flash point is on record?
Answer: 1.00 °C

Remark: another data set of the same source

Question: For `CC(=O)OC[Si](C)(C)C` [ACETOXYMETHYLTRIMETHYLSILANE], which flash point is on record?
Answer: 20.00 °C

Question: For `CO[Si](CCCOC(C)=O)(OC)OC` [3-ACETOXYPROPYLTRIMETHOXYSILANE], which flash point is on record?
Answer: 93.00 °C

Question: Which flash point does the source give for `CC(=O)OCC[Si](Cl)(Cl)Cl` [ACETOXYETHYLTRICHLOROSILANE] here?
Answer: 82.00 °C

Question: For `CC(=O)OCCC[Si](C)(Cl)Cl` [3-ACETOXYPROPYLMETHYLDICHLOROSILANE], which flash point is on record?
Answer: 85.00 °C

Question: For `CO[Si](OC)(OC)c1ccc(N)cc1` [p-AMINOPHENYLTRIMETHOXYSILANE], which flash point is on record?
Answer: 180.00 °C

Question: With `C[Si](C)(C)CNCc1ccccc1` [N-BENZYLAMINOMETHYLTRIMETHYLSILANE] as the compound, how does the flash point read?
Answer: 116.00 °C

Question: With `CCO[Si](CCCCN)(OCC)OCC` [4-AMINOBUTYLTRIETHOXYSILANE] as the compound, how does the flash point read?
Answer: 109.00 °C

Question: Which flash point does the source give for `C[Si](C)(C)CN` [AMINOMETHYLTRIMETHYLSILANE] here?
Answer: 9.00 °C

Question: Which flash point does the source give for `CCO[Si](C)(C)CCCN` [3-AMINOPROPYLDIMETHYLETHOXYSILANE] here?
Answer: 73.00 °C

Question: For `C=CC[SiH](C)C` [ALLYLDIMETHYLSILANE], which flash point is on record?
Answer: -20.00 °C

Question: Which flash point does the source give for `CO[Si](C)(CCCNCCN)OC` [N-(2-AMINOETHYL)-3-AMINOPROPYLMETHYLDIMETHOXYSILANE] here?
Answer: 90.00 °C

Question: Which flash point does the source give for `C=CC[Si](O[Si](C)(C)C)(O[Si](C)(C)C)O[Si](C)(C)C` [ALLYLTRIS(TRIMETHYLSILOXY)SILANE] here?
Answer: 67.00 °C

Question: Which flash point does the source give for `CCO[Si](CCCCCCS(=O)(=O)N=[N+]=[N-])(OCC)OCC` [6-AZIDOSULFONYLHEXYLTRIETHOXYSILANE] here?
Answer: 114.00 °C

Question: With `C=CC(=O)O[Si](C)(C)C` [ACRYLOXYTRIMETHYLSILANE] as the compound, how does the flash point read?
Answer: 26.00 °C

Question: For `C=CC[Si](C)(C)N(C(C)C)C(C)C` [ALLYLDIMETHYL(DIISOPROPYLAMINO)SILANE], which flash point is on record?
Answer: 62.00 °C

Question: Which flash point does the source give for `C[SiH](C)Cc1ccccc1` [BENZYLDIMETHYLSILANE] here?
Answer: 65.00 °C

Remark: another data set of the same source

Question: With `CC[Si](CC)(CC)CC` [Tetraethylsilane] as the compound, how does the flash point read?
Answer: 32.00 °C

Remark: another data set of the same source

Question: For `CN(C(=O)C(F)(F)F)[Si](C)(C)C` [N-Methyl-N-trimethylsilyltrifluoroacetamide], which flash point is on record?
Answer: 25 °C

Question: Which flash point does the source give for `C[Si](C)(C)OB(O[Si](C)(C)C)O[Si](C)(C)C` [Tris(trimethylsiloxy)boron] here?
Answer: 42 °C

Question: Which flash point does the source give for `CC[Si](CC)(CC)CC` [Tetraethylsilane] here?
Answer: 26 °C

Question: With `CO[Si](CCCNCCN)(OC)OC` [Aminoethylaminopropyltrimethoxysilane] as the compound, how does the flash point read?
Answer: 96 °C

Question: With `C=C[Si](C)(C)O[Si](C)(C)C` [Vinylpentamethyldisiloxane] as the compound, how does the flash point read?
Answer: 12 °C

Question: Which flash point does the source give for `C[Si](C)(C)N=C=N[Si](C)(C)C` [Bis(trimethylsilyl)carbodiimide] here?
Answer: 42 °C

From a flash point compilation (Sun et al. 2020)
